Values quoted from earlier work in the CATMoS acute toxicity set (Mansouri et al. 2021).
“And” between values parts separate entries of the source, which are not always exact repeats. Identical values can stand only once.

Assay: rat acute oral toxicity
Conditions: in vivo
Text: […]The data set underlying the modeling effort for this project was initially compiled by NICEATM and U.S. EPA’s CCTE. Briefly, LD50 data were collected from rat acute oral systemic toxicity tests, including limit tests, ranges/confidence intervals, and discrete LD50 values. The full data set included 21,200 LD50 entries for 15,688 substances. […] Data were reviewed to ensure that LD50 values with obvious errors in the extracted data such as unit conversion errors (e.g., comma and decimal separator misplacements) were either fixed or removed. After this review, 16,209 LD50 values remained. Many of the chemicals represented had multiple LD50 entries, requiring that a single representative value per Chemical Abstracts Service Registry Number (CASRN) identifier be defined to facilitate modeling efforts. Based on ATWG feedback and to define the representative LD50 as a protective value while accounting for the distribution across multiple LD50s, the median of the lowest quartile was computed using only discrete LD50 values (omitting limit test data and range and confidence interval data). A detailed summary of the data compilation is available online on the NICEATM webpage dedicated to the collaborative modeling project (NTP 2020).
[…][…] For categorical designations, limit test and range/confidence interval LD50 data were integrated wherever possible. As such, the number of chemicals with end point values/calls varies across the modeling end points (Table 3) based on whether chemicals had representative LD50 values and/or other data. If a chemical had both, the representative value was used to determine categorical calls rather than limit test data. Some data were useable only for certain end points and categories depending on the thresholds. For example, ranges that spanned multiple hazard categories were considered only for the binary (very toxic/nontoxic) end points and omitted from rendering a determination for hazard category assignment.
[…]The final data set comprising 11,992 chemicals was split into training and evaluation sets […], respectively. This process was performed semirandomly by ordering chemicals based on the five end points (categorical and continuous LD50 values) and partitioning every fourth record into the evaluation set accordingly. This approach was taken to ensure an equivalent distribution of the LD50 values and the different hazard categories between the training and the evaluation sets without supervised sampling of the chemicals based on structures (Figure 1A). The sources of the chemical structures were also kept equivalent between the two sets, with chemical structures obtained from DSSTox, being the highest quality, representing over 75% of each set (Figure 1B).

SMILES	LD50
COP(=S)(OC)SCC(=O)O	2500 mg/kg
CC(C)C(=O)C(C)C	3540 mg/kg
O=C(Cc1ccccc1)OC1=C(OC(=O)Cc2ccccc2)C(=O)OC1=O	8000 mg/kg
Cc1cc([N+](=O)[O-])ccc1S(=O)(=O)NCCO	4470 mg/kg
CCCCCCCCCCCC(=O)NP(=O)(OC)SC (centres undefined)	100 mg/kg
CC(C(=O)COC(=O)c1ccncc1)c1ccc(-c2ccccc2F)cc1 (centres undefined)	1170 mg/kg
C#CCSP(=O)(OCC)OCC	18 mg/kg
CC=CCCCCCCCC(=O)OC	3000 mg/kg
CN(C)CCN(CCN(C)C)n1cc(-c2ccccc2)c2ccccc21	1250 mg/kg
CC(=O)C(NC(=O)C(C)C(O)C(C)NC(=O)C(NC(=O)c1nc(C(CC(N)=O)NCC(N)C(N)=O)nc(N)c1C)C(OC1OC(CO)C(O)C(O)C1(C)OC1OC(CO)C(O)C(O)(C(N)=O)C1O)c1cnc[nH]1)C(=O)NCCC1=NC(c2nc(C(N)=O)cs2)CS1 (centres undefined)	649 mg/kg
CCCCCCCc1ccc(C)cc1O	3320 mg/kg
COc1cc(C(C)=O)ccc1OCCCCN1CCN(c2ccccc2)CC1	573 mg/kg
Cc1cnccc1N	446 mg/kg
NCCCCN	463 mg/kg
Clc1cc(Cl)c(Cl)c(-c2cc(Cl)c(-c3cc(Cl)c(Cl)c(Cl)c3)c(Cl)c2Cl)c1	19200 mg/kg
CCCCC(O)(Cn1cncn1)c1ccc(Cl)cc1Cl (centres undefined)	2190 mg/kg
CC(C)CNCC(C)C	258 mg/kg
C=C(C)c1cccc(C(C)(C)N=C=O)c1	3100 mg/kg
O=C(c1ccc2c(c1)C(=O)OC2=O)c1ccc2c(c1)C(=O)OC2=O	12800 mg/kg
Cc1cc(OC(=O)N(C)C)n(-c2ccccc2)n1	62 mg/kg
CCOP(=S)(OCC)SCSc1cc(Cl)ccc1Cl	44 mg/kg
CO[Si](C)(CCCNCCN)OC	200 mg/kg
COC(=O)c1ccc(I)cc1S(=O)(=O)NC(=O)Nc1nc(C)nc(OC)n1	2680 mg/kg
OC[C@H]1CO[C@@H](Cc2ccccc2)O1	1720 mg/kg
Cc1cccc(C)c1N	2040 mg/kg

SMILES	LD50
CCCCCCCCCCC(C)c1ccc(S(=O)(=O)O)cc1 (centres undefined)	437 mg/kg
CC(=O)Oc1cc(C(F)(F)F)ccc1C(=O)O	402 mg/kg
CCCCCCOC(=O)Oc1ccccc1C(=O)O	3450 mg/kg
Fc1ccc(SCc2ccc(Cl)cc2)cc1	3000 mg/kg
N#Cc1cc(Cl)c2nc(C(F)(F)F)[nH]c2c1	2.4 mg/kg
CS(=O)(=O)c1ccc(N)c(Cl)c1	9500 mg/kg
C=CCN(C1=NCCN1)c1c(Cl)cccc1Cl	500 mg/kg and 233 mg/kg
Cc1cccc(C)c1Nc1ncccc1C(=O)O	2.3 mg/kg
CCOC(=O)C1(c2ccccc2)CCN(CCC(C#N)(c2ccccc2)c2ccccc2)CC1	221 mg/kg
COc1ccc2c(c1)OC(C)(C)C(c1ccccc1)=C2c1ccc(OCC(O)CNC(C)C)cc1 (centres undefined)	1000 mg/kg
O=C(O)COc1ccc2ccccc2c1	600 mg/kg
CCCCCCCOCCO	2280 mg/kg
O=C(O)CCC(=O)OC[C@@H](NC(=O)C(Cl)Cl)[C@H](O)c1ccc([N+](=O)[O-])cc1	8300 mg/kg
C=CCNC(=S)Nc1ccccc1	750 mg/kg
CC(C)OC(Cl)=C(Cl)C(Cl)=C(Cl)Cl	1210 mg/kg
COP(=S)(OC)Oc1ccc([N+](=O)[O-])c(SC(C)C)c1	1140 mg/kg
C=COCCO	3910 mg/kg
C/C(=N\O)C(=O)c1ccccc1	4240 mg/kg
NCCNCc1ccccc1O	3700 mg/kg
COc1ccc2[nH]c(S(=O)Cc3ncc(C)c(OC)c3C)nc2c1 (centres undefined)	2210 mg/kg
O=C(c1cc(O)c(O)c(O)c1)c1ccc(O)c(O)c1O	1420 mg/kg
Clc1cc2c(cc1Cl)Oc1c(Cl)c(Cl)c(Cl)c(Cl)c1O2	0.887 mg/kg
CC(C)=CC(=O)O[C@H]1CC[C@]2(C=O)[C@H]3CC[C@]4(C)[C@@H](c5ccc(=O)oc5)CC[C@]4(O)[C@@H]3CC[C@]2(O)C1	1.74 mg/kg
CC(C)c1ccc(C=O)cc1	1390 mg/kg
